From patent US11180504B2 (ORCHID PHARMA LTD., priority 2016, dated 2021)
In brackets after ≈: the same amount, converted by molar mass.

Legend:
[1] = test system: carbapenemase producing K. pneumoniae; experiment: MIC by broth micro-dilution (CLSI), carbapenemase producing K. pneumoniae; type: cell-based, Klebsiella pneumoniae; details: Klebsiella pneumoniae, ATCCBAA1705, KPC-2 K. pneumoniae ATCC BAA-1705; read-out: MIC
[2] = test system: methicillin-sensitive Staphylococcus aureus; experiment: MIC by broth micro-dilution (CLSI), methicillin-sensitive S. aureus; type: cell-based; details: Staphylococcus aureus, ATCC 29213 / MSSA, MSSA S. aureus ATCC29213; read-out: MIC
[3] = test system: carbapenem sensitive Escherichia coli; experiment: MIC by broth micro-dilution (CLSI), carbapenem sensitive E. coli; type: cell-based; details: Escherichia coli, ATCC25922, ESBL −ve E. coli ATCC25922; read-out: MIC
[4] = test system: extended spectrum β lactamase (ESBL) SHV18 producing Klebsiella pneumoniae; experiment: MIC by broth micro-dilution (CLSI), ESBL SHV18 producing K. pneumoniae; type: cell-based; details: Klebsiella pneumoniae, ATCC700603, 22 h, ESBL +ve (SHV-18) K. pneumoniae ATCC700603; read-out: MIC
[5] = test system: carbapenem sensitive Pseudomonas aeruginosa; experiment: MIC by broth micro-dilution (CLSI), carbapenem sensitive P. aeruginosa; type: cell-based; details: Pseudomonas aeruginosa, ATCC27853, Meropenem susceptible P. aeruginosa ATCC27853; read-out: MIC

| Compound | MIC [1] [µg/mL] | MIC [2] [µg/mL] | MIC [3] [µg/mL] | MIC [4] [µg/mL] | MIC [5] [µg/mL] |
| --- | --- | --- | --- | --- | --- |
| C[C@@H](NC(=O)[C@@H](N)Cc1ccccc1)[C@H]1C(=O)N2C(C(=O)O)=C(S[C@@H]3CN[C@H](C(=O)N(C)C)C3)[C@H](C)[C@H]12 [Example 71] | 64 (≈ 121 µM) | 8 (≈ 15.1 µM) | 16 (≈ 30.2 µM) | 128 (≈ 242 µM) | > 128 |
| C[C@@H](NC(=O)C(F)F)[C@H]1C(=O)N2C(C(=O)O)=C(S[C@@H]3CN[C@H](CN4CCNCC4)C3)[C@H](C)[C@H]12 [Example 145] | 8 (≈ 16.4 µM) | 0.5 (≈ 1.03 µM) | 2 (≈ 4.1 µM) | 8 to 16 (≈ 16.4 to 32.8 µM) | 32 (≈ 65.6 µM) |
| C[C@@H](NC(=O)C(F)F)[C@H]1C(=O)N2C(C(=O)O)=C(SCCNC(=O)OC(C)(C)C)[C@H](C)[C@H]12 [Example 93] | > 128 | 16 (≈ 34.5 µM) | 128 (≈ 276 µM) | > 128 | > 128 |
| C[C@@H](NC(=O)C(F)F)[C@H]1C(=O)N2C(C(=O)O)=C(S[C@@H]3CN[C@H](C(=O)N4CC[S+]([O-])CC4)C3)[C@H](C)[C@H]12 [Example 42] | 8 (≈ 15 µM) | 2 (≈ 3.74 µM) | 1 (≈ 1.87 µM) | 1 (≈ 1.87 µM) | 128 (≈ 239 µM) |
| C[C@@H](NC(=O)[C@H]1CCCN1)[C@H]1C(=O)N2C(C(=O)O)=C(S[C@@H]3CN[C@H](C(=O)N4CC[C@@H](N)C4)C3)[C@H](C)[C@H]12 [Example 206] | 4 (≈ 7.68 µM) | 64 (≈ 123 µM) | 4 (≈ 7.68 µM) | 4 (≈ 7.68 µM) | 4 (≈ 7.68 µM) |
| C[C@@H](NC(=O)C(F)F)[C@H]1C(=O)N2C(C(=O)O)=C(Sc3nc(-c4cc[n+](C)cc4)cs3)[C@H](C)[C@H]12 [Example 94] | > 128 | 0.25 | 64 | > 128 | > 128 |
| C[C@@H](NC(=O)C(F)F)[C@H]1C(=O)N2C(C(=O)O)=C(S[C@@H]3CN[C@H](C(=O)N4CC[C@H](NC(=O)N(C)C)C4)C3)[C@H](C)[C@H]12 [Example 118] | 8 (≈ 14 µM) | 4 (≈ 6.99 µM) | 0.5 (≈ 0.873 µM) | 2 (≈ 3.49 µM) | 64 (≈ 112 µM) |
| C[C@@H](NC(=O)C(F)(F)C(F)(F)F)[C@H]1C(=O)N2C(C(=O)O)=C(S[C@@H]3CN[C@H](C(=O)N(C)C)C3)[C@H](C)[C@H]12 [Example 87] | 8 (≈ 15.1 µM) | 2 (≈ 3.78 µM) | 1 (≈ 1.89 µM) | 8 (≈ 15.1 µM) | 64 (≈ 121 µM) |
| C[C@@H](NC(=O)C(F)F)[C@H]1C(=O)N2C(C(=O)O)=C(S[C@@H]3CN[C@H](C(=O)N4CC[C@H](O)C4)C3)[C@H](C)[C@H]12 [Example 77] | 4 (≈ 7.96 µM) | 4 to 8 (≈ 7.96 to 15.9 µM) | 0.5 to 1 (≈ 0.995 to 1.99 µM) | 1 (≈ 1.99 µM) | 32 to 64 (≈ 63.7 to 127 µM) |
| C[C@@H](NC(=O)CC(F)(F)F)[C@H]1C(=O)N2C(C(=O)O)=C(S[C@@H]3CN[C@H](C(=O)N(C)C)C3)[C@H](C)[C@H]12 [Example 40] | 4 to 8 (≈ 8.12 to 16.2 µM) | 4 (≈ 8.12 µM) | 1 (≈ 2.03 µM) | 8 (≈ 16.2 µM) | > 128 |
| C[C@@H](NC(=O)CN(C)C)[C@H]1C(=O)N2C(C(=O)O)=C(S[C@@H]3CN[C@H](C(=O)N4CC[C@@H](N)C4)C3)[C@H](C)[C@H]12 [Example 180] | 32 (≈ 62.9 µM) | 128 (≈ 252 µM) | 4 (≈ 7.86 µM) | 32 (≈ 62.9 µM) | 16 (≈ 31.5 µM) |
| CNCC(=O)N[C@@H]1CCN(C(=O)[C@@H]2C[C@H](SC3=C(C(=O)O)N4C(=O)[C@H]([C@@H](C)NC(=O)C(F)F)[C@H]4[C@H]3C)CN2)C1 [Example 155] | 8 (≈ 14 µM) | 2 (≈ 3.49 µM) | 1 (≈ 1.75 µM) | 8 (≈ 14 µM) | 32 (≈ 55.9 µM) |
| COCc1cn([C@H](C)[C@H]2C(=O)N3C(C(=O)O)=C(S[C@@H]4CN[C@H](C(=O)N5CC[C@@H](N)C5)C4)[C@H](C)[C@H]23)nn1 [Example 232] | 8 (≈ 15.4 µM) | 2 (≈ 3.85 µM) | 2 (≈ 3.85 µM) | 8 (≈ 15.4 µM) | > 128 |
| C[C@@H](NC(=O)C(F)F)[C@H]1C(=O)N2C(C(=O)O)=C(S[C@@H]3CN[C@H](C(=O)N4C[C@@H](N)C[C@H]4C(=O)N(C)C)C3)[C@H](C)[C@H]12 [Example 142] | 8 (≈ 14 µM) | 4 to 8 (≈ 6.99 to 14 µM) | 1 (≈ 1.75 µM) | 8 (≈ 14 µM) | 16 to 32 (≈ 27.9 to 55.9 µM) |
| C[C@@H](NC(=O)C(F)F)[C@H]1C(=O)N2C(C(=O)O)=C(S[C@@H]3CN[C@H](C(=O)NCCN(C)C)C3)[C@H](C)[C@H]12 [Example 102] | 8 (≈ 15.9 µM) | 2 (≈ 3.97 µM) | 2 (≈ 3.97 µM) | 8 (≈ 15.9 µM) | 64 (≈ 127 µM) |
| C[C@@H](NS(C)(=O)=O)[C@H]1C(=O)N2C(C(=O)O)=C(S[C@@H]3CN[C@H](C(=O)N4CCN(C)CC4)C3)[C@H](C)[C@H]12 [Example 23] | 8 (≈ 15.5 µM) | 16 (≈ 31 µM) | 0.5 (≈ 0.97 µM) | 1 (≈ 1.94 µM) | 32 to 128 (≈ 62.1 to 248 µM) |
